Experimental data from ChEMBL document CHEMBL1201862, “PubChem BioAssay data set” (2004).
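96-well plates; 48 h exposure; 5 concentrations. Endpoints by linear interpolation between flanking doses. Not reached: highest tested concentration assigned. Abbreviation: GI50, concentration required for 50% inhibition of growth.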 Activity calls are given as the source filed them. No stated cut-off is given here; in the data, active = GI50 up to about 1.1 µM and inactive = higher.

Columns and labels:
Test in all cases: inhibition of tumour cell growth, NCI panel, 48 h
HOP-18 = system: HOP-18
M19-MEL = system: M19-MEL
RXF 631 = system: RXF 631
XF498 = system: XF498
SNB-78 = system: SNB-78
KM-20L2 = system: KM-20L2
DLD-1 = system: DLD-1
LXFL 529 = system: LXFL 529
DMS-114 = system: DMS-114

Compound: CNC(=O)OCc1nc([S+](C)[O-])n(C)c1COC(=O)NC (stereo not drawn)
- GI50 (HOP-18): > 88.9 µM (inactive)
- GI50 (M19-MEL): > 45.1 µM (inactive)
- GI50 (RXF 631): > 100 µM (inactive)
- GI50 (XF498): > 100 µM (inactive)
- GI50 (SNB-78): > 60.5 µM (inactive)
- GI50 (KM-20L2): > 100 µM (inactive)
- GI50 (DLD-1): > 100 µM (inactive)
- GI50 (LXFL 529): > 23.1 µM (inactive)
- GI50 (DMS-114): > 34.6 µM (inactive)

Compound: NC(=O)c1c[se]c(C2OC(CO)C(O)C2O)n1 (stereo not drawn)
- GI50 (HOP-18): > 100 µM (inactive)
- GI50 (M19-MEL): 5.28 µM (inactive)
- GI50 (RXF 631): 7.6 µM (inactive)
- GI50 (XF498): 8.91 µM (inactive)
- GI50 (DLD-1): 1.88 µM (inactive)
- GI50 (LXFL 529): 17 µM (inactive)
- GI50 (DMS-114): 25.4 µM (inactive)

Compound: CCOC(=O)Cn1c(=O)[nH]c(=O)c2c1ncn2Cc1ccccc1
- GI50 (HOP-18): > 100 µM (inactive)
- GI50 (M19-MEL): > 100 µM (inactive)
- GI50 (RXF 631): > 100 µM (inactive)
- GI50 (XF498): > 100 µM (inactive)
- GI50 (SNB-78): > 100 µM (inactive)
- GI50 (KM-20L2): > 100 µM (inactive)
- GI50 (DLD-1): > 100 µM (inactive)
- GI50 (LXFL 529): > 100 µM (inactive)
- GI50 (DMS-114): > 100 µM (inactive)

Compound: CC1OC(n2cc(F)c(=O)[nH]c2=O)C=CC1O (stereo not drawn)
- GI50 (HOP-18): > 100 µM (inactive)
- GI50 (M19-MEL): > 100 µM (inactive)
- GI50 (RXF 631): > 100 µM (inactive)
- GI50 (XF498): > 100 µM (inactive)
- GI50 (SNB-78): > 100 µM (inactive)
- GI50 (KM-20L2): > 100 µM (inactive)
- GI50 (DLD-1): > 100 µM (inactive)
- GI50 (LXFL 529): > 100 µM (inactive)
- GI50 (DMS-114): > 100 µM (inactive)

Compound: C/C=N\N1C(=O)c2ccccc2C1=O
- GI50 (HOP-18): > 100 µM (inactive)
- GI50 (M19-MEL): > 100 µM (inactive)
- GI50 (RXF 631): > 100 µM (inactive)
- GI50 (XF498): > 100 µM (inactive)
- GI50 (SNB-78): > 100 µM (inactive)
- GI50 (KM-20L2): > 100 µM (inactive)
- GI50 (DLD-1): > 100 µM (inactive)
- GI50 (LXFL 529): > 100 µM (inactive)
- GI50 (DMS-114): > 100 µM (inactive)

Compound: Oc1cc(-n2cccn2)c(O)cc1-n1cccn1
- GI50 (HOP-18): 67.9 µM (inactive)
- GI50 (M19-MEL): 23.7 µM (inactive)
- GI50 (RXF 631): > 60.8 µM (inactive)
- GI50 (XF498): 16.3 µM (inactive)
- GI50 (SNB-78): 34.8 µM (inactive)
- GI50 (KM-20L2): > 85.7 µM (inactive)
- GI50 (DLD-1): 32.6 µM (inactive)
- GI50 (LXFL 529): 19.4 µM (inactive)
- GI50 (DMS-114): 26.4 µM (inactive)

Compound: CN(C)CCCNc1ccc2nnn3c4ccc([N+](=O)[O-])cc4c(=O)c1c23
- GI50 (HOP-18): 0.729 µM (active)
- GI50 (M19-MEL): 3.65 µM (inactive)
- GI50 (RXF 631): 0.723 µM (active)
- GI50 (XF498): 1.5 µM (inactive)
- GI50 (SNB-78): 2.08 µM (inactive)
- GI50 (KM-20L2): 0.745 µM (active)
- GI50 (DLD-1): 0.931 µM (active)
- GI50 (LXFL 529): 1.22 µM (inactive)
- GI50 (DMS-114): 1.89 µM (inactive)

Compound: NNC(=O)N/N=C(/CC1(O)C(=O)Nc2ccc(Br)cc21)c1ccccc1 (stereo not drawn)
- GI50 (M19-MEL): 32.4 µM (inactive)
- GI50 (RXF 631): 38.6 µM (inactive)
- GI50 (XF498): 18.9 µM (inactive)
- GI50 (SNB-78): 34.5 µM (inactive)
- GI50 (KM-20L2): 27.9 µM (inactive)
- GI50 (DLD-1): 35.9 µM (inactive)
- GI50 (LXFL 529): 23.4 µM (inactive)

Compound: COc1cc(Nc2nc3c(N)cc(C(F)(F)F)cc3nc2-c2ccccc2)cc(OC)c1OC
- GI50 (HOP-18): 29.8 µM (inactive)
- GI50 (M19-MEL): > 82.2 µM (inactive)
- GI50 (RXF 631): > 44.5 µM (inactive)
- GI50 (XF498): 19.1 µM (inactive)
- GI50 (KM-20L2): > 65.5 µM (inactive)
- GI50 (LXFL 529): 63.5 µM (inactive)
- GI50 (DMS-114): 81.8 µM (inactive)

Compound: Cc1cc(N(CCC#N)CCC#N)ccc1/C(Sc1ccccc1)=C(\NC(=O)/C=C/c1ccccc1)C(=O)Sc1ccccc1
- GI50 (HOP-18): 14 µM (inactive)
- GI50 (M19-MEL): 3.22 µM (inactive)
- GI50 (RXF 631): 2.79 µM (inactive)
- GI50 (XF498): 12 µM (inactive)
- GI50 (SNB-78): 3.33 µM (inactive)
- GI50 (KM-20L2): 2.14 µM (inactive)
- GI50 (DLD-1): 1.73 µM (inactive)
- GI50 (LXFL 529): 1.57 µM (inactive)
- GI50 (DMS-114): 1.54 µM (inactive)

Compound: COc1ccc(NC(=O)/C(=C/c2ccccc2)C(C)=O)cc1
- GI50 (HOP-18): 13.5 µM (inactive)
- GI50 (M19-MEL): 14.3 µM (inactive)
- GI50 (RXF 631): 15.7 µM (inactive)
- GI50 (XF498): 16.2 µM (inactive)
- GI50 (SNB-78): 15.5 µM (inactive)
- GI50 (KM-20L2): 14.3 µM (inactive)
- GI50 (DLD-1): 12.8 µM (inactive)
- GI50 (LXFL 529): 12.4 µM (inactive)
- GI50 (DMS-114): 15.2 µM (inactive)
